Laboratory results as given in the SangsterLogP compilation.

| SMILES | logP |
| --- | --- |
| O=C(NC(O)C(=O)O)OCc1ccccc1 (centres undefined) | 1.63 |
| CNC(C)C(=O)NCc1cccnc1 (centres undefined) | 0.05 |
| CC(=O)NC(C)C(=O)NCCC(C)C (centres undefined) | 0.88 |
| CC(NC(=O)OCc1ccccc1)C(=O)OCc1ccccc1 (centres undefined) | 3.84 |
| CC(=O)NC(C)C(=O)NCC(C)C (centres undefined) | 0.56 |
| CNC(C)C(=O)NCc1ccco1 (centres undefined) | -0.66 |
| CN[C@H](C)C(=O)NCc1ccc(OC)cc1 | 1.11 |
| CC(=O)NC(CCCNC(=N)N[N+](=O)[O-])C(=O)NCc1ccccc1 (centres undefined) | 0.45 |
| CN[C@H](C)C(=O)NCc1ccc(F)cc1 | 1.51 |
| CC(=O)N(C)C(C)C(=O)NCc1ccco1 (centres undefined) | -0.55 |
| O=C(NC(CCC1CCCCC1)C(=O)OCCC1CCCCC1)OCc1ccccc1 (centres undefined) | 6.39 |
| CC(=O)NC(Cc1ccc(Cl)cc1)C(=O)NCc1ccccc1 (centres undefined) | 3.72 |
| CC(C(=O)NCc1ccccc1)N(C)C(=O)OC(C)(C)C (centres undefined) | 2.94 |
| CC(=O)N[C@@H](Cc1c[nH]c2ccccc12)C(=O)NCc1ccccc1 | 2.17 |
| CN1CSCC1C(=O)NCc1ccccc1 (centres undefined) | 1.85 |
| CC(NC(=O)OCc1ccccc1)C(=O)NCc1ccccc1 (centres undefined) | 3.52 |
| CC(=O)NC(CC(C)C)C(=O)NCc1ccccc1 (centres undefined) | 2.31 |
| CCCCNC(=O)C(C)NC(C)=O (centres undefined) | 0.55 |

Second part, the compound after the results:

| logP | SMILES |
| --- | --- |
| 1.12 | CC(=O)N(C)CCC(=O)NCc1ccccc1 |
| 0.94 | CC(=O)N(C)CC(=O)NCc1ccccc1 |
| 1.48 | CC(=O)N(C)C(C)C(=O)NCc1ccccc1 (centres undefined) |
| 1.71 | CCNC(C)C(=O)NCc1ccccc1 (centres undefined) |
| 1.32 | CC(=O)NC(C)(C)C(=O)NCc1ccccc1 |
| 0.76 | CC(=O)NCCC(=O)NCc1ccccc1 |
| 1.01 | CC(=O)NCCCC(=O)NCc1ccccc1 |
| 1.01 | CNCCC(=O)NCc1ccccc1 |
| 1.46 | CC(=O)N1CCC[C@@H]1C(=O)NCc1ccccc1 |
| 1.73 | CC(C(=O)NCc1ccccc1)N(C)C (centres undefined) |
| 1.29 | CC(=O)N1CSCC1C(=O)NCc1ccccc1 (centres undefined) |
